Test results: US20220310273A1, “SYSTEM FOR EVALUATING SENSITIVITY TO ANTI-CANCER AGENT AND A COMPUTER READABLE MEDIUM STORING PROGRAMS EXECUTING AN EVALUATING METHOD” (MBD Co., Ltd., priority 2021, published 2022)

System: cancer cells of biological individuals diagnosed with breast cancer
Assay: evaluation of sensitivity to doxorubicin (DOX) in patient tissues, using cell colony growth rate and IC50 value
Details: patient tissue #2 (breast cancer)

IC50 value: low
Compound: COc1cccc2c1C(=O)c1c(O)c3c(c(O)c1C2=O)C[C@@](O)(C(=O)CO)C[C@@H]3O[C@H]1C[C@H](N)[C@H](O)[C@H](C)O1 [doxorubicin]
